l = locked nucleic acid (LNA); d = 2'-deoxy (DNA)
Legend:
H1N1 (strain PR8) = assay type: cell-based, murine
M2 protein = assay type: cell-based, H1N1 (strain PR8)

Substance	reduction in viral HA RNA levels (H1N1 (strain PR8))	relative effectiveness of the 2′OMe compounds (viral HA RNA; also observed for M2 protein) (H1N1 (strain PR8))	effectiveness in the M2 protein expression assay (M2 protein)	effectiveness in the viral HA RNA assay (H1N1 (strain PR8))
LNA-AUG12: LNA (capitals)/DNA CgGtTaGaAgAcTcAt (CGGTTAGAAGACTCAT; sugars from the 5' end ldldldldldldldld, backbone and methylation of C not given here)	approximately 1.5 log	–	–	–
2′OMe-AUG2: 2′OMe phosphorothioate oligomer, SEQ ID NO: 20 (ACCTCGGTTAGAAGACTCATCTTTC; all 2'-O-methyl, all phosphorothioate, T or U not given here)	–	most effective	–	–
LNA-AUG10: LNA (capitals)/DNA gAcTcAtCtT (GACTCATCTT; sugars from the 5' end dldldldldl, backbone and methylation of C not given here)	–	–	least effective	least effective
LNA-AUG1: LNA (capitals)/DNA CgGtTaGaAgAcTcAtCtTt (CGGTTAGAAGACTCATCTTT; sugars from the 5' end ldldldldldldldldldld, backbone and methylation of C not given here)	approximately 3 log	–	most effective	–
